# Laboratory results reported in publication PMC11962866 (RSC Advances, 2025).
# Assays:
# C. alb (SC5314) = experiment: In vitro antifungal assay; type: cell-based; details: Candida albicans, SC5314, read-out: MIC80 C. alb (SC5314)
# Strain 901 = experiment: Antifungal activity against fluconazole-resistant strain; type: cell-based; details: Candida albicans, 901, read-out: MIC80 Strain 901
# Strain CaR = experiment: as above; type: cell-based; details: Candida albicans, read-out: MIC80 Strain CaR
# Strain 17# = experiment: as above; type: cell-based; details: Candida albicans, read-out: MIC80 Strain 17#
# Strain 904 = experiment: as above; type: cell-based, Candida albicans; details: Candida albicans, 904, read-out: MIC80 Strain 904
# [1] = system: ERG11 and CDR1 of azole-resistant strain 904; experiment: RT-PCR expression of resistant genes ERG11 and CDR1; type: cell-based, Candida albicans; details: 0.25 μg mL^−1, strain 904, RT-PCR
# MRC-5 cells = experiment: Cytotoxicity assay on normal cells; type: cell-based, human; details: Homo sapiens, MRC5, 72 h, read-out: IC50 on MRC-5 cell lines
# Strain 632 = experiment: Antifungal activity against fluconazole-resistant strain; type: cell-based; details: Candida albicans, 632, read-out: MIC80 Strain 632
# C. neo = experiment: In vitro antifungal assay; type: cell-based; details: Cryptococcus neoformans, read-out: MIC80 C. neo
SMILES,MIC80 (C. alb (SC5314)) [µg/mL],MIC80 (Strain 901) [µg/mL],MIC80 (Strain CaR) [µg/mL],MIC80 (Strain 17#) [µg/mL],MIC80 (Strain 904) [µg/mL],Expression of ERG11 and CDR1 [1],IC50 (MRC-5 cells) [µM],MIC80 (Strain 632) [µg/mL],MIC80 (C. neo) [µg/mL]
"O=C(Nc1ccccc1)c1ccc(COC(Cn2ccnc2)c2ccc(Cl)cc2Cl)cc1 (stereo not drawn) [A01, 4-((1-(2,4-dichlorophenyl)-2-(1H-imidazol-1-yl)ethoxy)methyl)-N-phenylbenzamide]",0.125,2,4,8,0.5,reduced to basic levels,> 100,4,0.25
"O=C(Nc1ccc(F)cc1)c1ccc(COC(Cn2ccnc2)c2ccc(Cl)cc2Cl)cc1 (stereo not drawn) [A02, 4-((1-(2,4-Dichlorophenyl)-2-(1H-imidazol-1-yl)ethoxy)methyl)-N-(4-fluorophenyl)benzamide]",0.125,4,8,8,0.25,–,> 100,4,0.5
"O=C(Nc1ccc(Cl)cc1)c1ccc(COC(Cn2ccnc2)c2ccc(Cl)cc2Cl)cc1 (stereo not drawn) [A03, N-(4-Chlorophenyl)-4-((1-(2,4-dichlorophenyl)-2-(1H-imidazol-1-yl)ethoxy)methyl)benzamide]",0.125,2,8,16,0.25,–,> 100,4,0.06
"O=C(Nc1ccc(Br)cc1)c1ccc(COC(Cn2ccnc2)c2ccc(Cl)cc2Cl)cc1 (stereo not drawn) [A04, N-(4-Bromophenyl)-4-((1-(2,4-dichlorophenyl)-2-(1H-imidazol-1-yl)ethoxy)methyl)benzamide]",0.06,2,4,16,0.25,–,> 100,4,0.25
"Cc1ccc(NC(=O)c2ccc(COC(Cn3ccnc3)c3ccc(Cl)cc3Cl)cc2)cc1 (stereo not drawn) [A05, 4-((1-(2,4-Dichlorophenyl)-2-(1H-imidazol-1-yl)ethoxy)methyl)-N-(p-tolyl)benzamide]",0.03,4,4,8,0.25,–,> 100,4,0.25
"O=C(Nc1ccc(C(F)(F)F)cc1)c1ccc(COC(Cn2ccnc2)c2ccc(Cl)cc2Cl)cc1 (stereo not drawn) [A06, 4-((1-(2,4-Dichlorophenyl)-2-(1H-imidazol-1-yl)ethoxy)methyl)-N-(4-(trifluoromethyl)phenyl)benzamide]",0.06,2,2,16,0.25,–,> 100,2,0.125
"COc1ccc(NC(=O)c2ccc(COC(Cn3ccnc3)c3ccc(Cl)cc3Cl)cc2)cc1 (stereo not drawn) [A07, 4-((1-(2,4-Dichlorophenyl)-2-(1H-imidazol-1-yl)ethoxy)methyl)-N-(4-methoxyphenyl)benzamide]",0.06,4,4,4,0.25,reduced to basic levels,> 100,4,0.25
"O=C(Nc1cccc(F)c1)c1ccc(COC(Cn2ccnc2)c2ccc(Cl)cc2Cl)cc1 (stereo not drawn) [A08, 4-((1-(2,4-Dichlorophenyl)-2-(1H-imidazol-1-yl)ethoxy)methyl)-N-(3-fluorophenyl)benzamide]",0.06,2,4,16,0.25,–,> 100,4,0.125
